Reference: PubChem BioAssay (NCI)
Values joined by “and” are separate entries in the source; they are usually repeats but may differ in a detail not shown here. Identical values can stand only once.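 Assay format: 96-well plates, 48-hour exposure. GI50 marks 50% less growth. The concentration for full growth arrest is given as TGI.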 *1 amine or outer side, *2 acyl side, *3 side chain or, on linkers, in order; H or OH if unused. Where a SMILES comes first, the peptide text is derived from it. Bridges are numbered along the chain shown (N, C = ends). Roman numbers before positions name the chains, in order. [ ]: non-standard residue; d: D form. Actinocin(9to1) = Cc1c2oc3c(C)ccc(C(=O)[*:1])c3nc-2c(C(=O)[*:2])c(N)c1=O; NMeV = CN[CH](C(=O)O)C(C)C; Sar = CNCC(=O)O

Columns and labels:
Experiment in all cases: NCI anticancer screen, dose series, 48 h
CCRF-CEM leukemia = system: CCRF-CEM leukemia
UACC-257 melanoma = system: UACC-257 melanoma
HT29 colon = system: HT29 colon
K-562 leukemia = system: K-562 leukemia
SF-268 CNS = system: SF-268 CNS
MALME-3M melanoma = system: MALME-3M melanoma
NCI-H460 lung = system: NCI-H460 lung
SF-539 CNS = system: SF-539 CNS
KM12 colon = system: KM12 colon
HCT-116 colon = system: HCT-116 colon
IGROV1 ovarian = system: IGROV1 ovarian
SNB-19 CNS = system: SNB-19 CNS
OVCAR-3 ovarian = system: OVCAR-3 ovarian

Compound | GI50 (CCRF-CEM leukemia) | TGI (CCRF-CEM leukemia) | GI50 (UACC-257 melanoma) | TGI (UACC-257 melanoma) | TGI (HT29 colon) | GI50 (K-562 leukemia) | TGI (K-562 leukemia) | GI50 (SF-268 CNS) | TGI (SF-268 CNS) | TGI (MALME-3M melanoma) | GI50 (NCI-H460 lung) | TGI (NCI-H460 lung) | TGI (SF-539 CNS) | TGI (KM12 colon) | TGI (HCT-116 colon) | TGI (IGROV1 ovarian) | TGI (SNB-19 CNS) | TGI (OVCAR-3 ovarian) | GI50 (SF-539 CNS) | GI50 (SNB-19 CNS)
CC(C)(C)c1ccc(C(O)CCCN2CCC(C(O)(c3ccccc3)c3ccccc3)CC2)cc1 (centres undefined) | 2 µM | 5.8 µM | 1.4 µM and 13.2 µM | 2.85 µM and 18.2 µM | 2.23 µM and 20.9 µM | 2.18 µM | 5.14 µM | 1.57 µM | 2.92 µM | 3.03 µM and 23.7 µM | 1.6 µM and 14.6 µM | 2.95 µM and 21.5 µM |  |  |  |  |  |  |  | 
CC1C(NNC(N)=O)Oc2cc3c(cc2C1c1ccccc1O)OCO3 (centres undefined) |  | 54.5 µM |  | > 100 µM | > 100 µM |  | 64.1 µM |  | > 100 µM | 97.2 µM |  | > 100 µM | 74 µM | > 100 µM | 76.8 µM | 86.4 µM | > 100 µM | > 100 µM |  | 
O=C(NNC(=S)Nc1ccccc1)c1nsc2ccccc12 |  | 49 µM |  | > 100 µM | > 100 µM |  | > 100 µM |  | > 100 µM |  |  | > 100 µM | 97.8 µM | > 100 µM | > 100 µM | > 100 µM | > 100 µM | 35.1 µM |  | 
CC(C(=O)OCc1ccccc1)N(Cc1ccccc1)Cc1ccccc1 (centres undefined) |  | > 100 µM |  | > 100 µM | > 100 µM |  | > 100 µM |  | > 100 µM | > 100 µM |  | > 100 µM | > 100 µM | > 100 µM | > 100 µM | > 100 µM | > 100 µM | > 100 µM |  | 
NC(Cc1ccc(OCc2ccccc2)cc1)C(=O)NC(Cc1ccccc1)C(=O)Oc1c(Cl)c(Cl)c(Cl)c(Cl)c1Cl (centres undefined) |  | > 100 µM |  | 32.8 µM | 32.1 µM |  | > 100 µM |  | 38.9 µM | 35.3 µM |  | 30.5 µM | 30.6 µM | 28.8 µM | 31.3 µM | 31.4 µM | 34 µM | 28.9 µM |  | 
Cc1c2oc3c(C)ccc(C(=O)NC4C(=O)NC(Cc5ccccc5)C(=O)N5CCCC5C(=O)N(C)CC(=O)N(C)C(C(C)C)C(=O)OC4C)c3nc-2c(C(=O)NC2C(=O)NC(Cc3ccccc3)C(=O)N3CCCC3C(=O)N(C)CC(=O)N(C)C(C(C)C)C(=O)OC2C)c(N)c1=O (centres undefined) (I: TFP[Sar][NMeV] / II: TFP[Sar][NMeV]; ester I:1-I:C, II:1-II:C; linker I:N-II:N via Actinocin(9to1); configuration not given here) |  | 0.00791 µM |  | 0.0577 µM | 0.0108 µM |  | 0.00316 µM |  | 0.121 µM and 0.528 µM | 0.0187 µM |  |  |  | 1.05 µM | 0.00736 µM | 0.0165 µM | 1.62 µM | 0.0252 µM and 0.04 µM | < 0.001 µM | < 0.001 µM
COc1ccccc1OCC(COC(=O)Nc1ccccc1)OC(=O)Nc1ccccc1 (centres undefined) |  | > 100 µM |  | > 100 µM | > 100 µM |  | > 100 µM |  | > 100 µM | > 100 µM |  | > 100 µM | 33.4 µM | > 100 µM | > 100 µM | > 100 µM | > 100 µM | > 100 µM |  | 
